# According to US9453019B2, “Linked purine pterin HPPK inhibitors useful as antibacterial agents” (THE UNITED STATES OF AMERICA, AS REPRESENTED BY THE …, priority 2010, dated 2016):
# How the values were obtained:
# HPPK = HPPK (Escherichia coli, UniProt P26281); experiment: Fluorometric titration binding study with HPPK; settings: room temperature; 100 mM Tris-HCl, pH 8.3; fluorescence titration, nonlinear least-squares analysis
# Method: Binding studies were carried out at room temperature. Protein (HPPK) and ligand stock solutions were made in 100 mM Tris-HCl, pH 8.3, and their concentrations were determined spectrophotometrically using the following extinction coefficients: 21600 M^−1 cm^−1 at 280 nm for HPPK, 7000 M^−1 cm^−1 at 366 nm for the pteridone bisubstrate inhibitors such as compound 13, and 7124 M^−1 cm^−1 at 380 nm for the tetrahydropteridine bisubstrate inhibitors such as 28. A 3-mL dilute inhibitor solution in a fluorometric cuvette was titrated with the protein stock solution. Fluorescence was measured on a Horiba Jobin Yvon FluoroMax-4 fluorometer. The excitation wavelength and slit were 364-380 and 2-3 nm, respectively, and the emission wavelength and slit were 450-482 and 2-5 nm, respectively. […] For these HPPK preparations, a control experiment, in which a 3-mL buffer solution was titrated with the protein solution, was performed. The control data was subtracted from the titration data. The corrected titration data was then analyzed by nonlinear least-squares regression using the software Origin and the equation:
# [formula] where Fobs is the observed fluorescence, εf and εb are the fluorescence coefficients of the ligand in the free and protein-bound states, respectively, Lt is the total concentration of the ligand, and Et is the total concentration of HPPK. […]
# [1] = Stability of the compounds (stated in words, no method given); format: physicochemical; settings: qualitative statement; no conditions given
# Chain of HPPK (P26281 whole entry): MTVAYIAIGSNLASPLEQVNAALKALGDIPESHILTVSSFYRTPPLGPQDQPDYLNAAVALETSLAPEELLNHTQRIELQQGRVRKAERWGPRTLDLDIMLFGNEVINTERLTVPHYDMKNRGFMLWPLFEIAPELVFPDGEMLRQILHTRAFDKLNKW
Compound,Kd (HPPK),Stability of compound [1]
"Nc1nc2ncc(CNCCN3CCC(SC[C@H]4O[C@@H](n5cnc6c(N)ncnc65)C(O)C4O)CC3)nc2c(=O)[nH]1 (stereo in doubt) [Compound 13, 2-Amino-6-[(2-{4-[5-(6-amino-purin-9-yl)-3,4-dihydroxy-tetrahydro-furan-2-ylmethylsulfanyl]-piperidin-1-yl}-ethylamino)-methyl]-3H-pteridin-4-one]",590 nM,stable
"CC1(C)Nc2nc(N)[nH]c(=O)c2N=C1C(=O)NCCN1CCC(SC[C@H]2O[C@@H](n3cnc4c(N)ncnc43)C(O)C2O)CC1 (stereo in doubt) [Compound 28, 2-Amino-7,7-dimethyl-4-oxo-3,4,7,8-tetrahydro-pteridine-6-carboxylic acid (2-{4-[5-(6-amino-purin-9-yl)-3,4-dihydroxy-tetrahydro-furan-2-ylmethylsulfanyl]-piperidin-1-yl}-ethyl)-amide]",330 nM,stable
